Experiments:
Complex soil microbiome = test: Crystal violet biofilm biomass, MeJA chemical analogs; format: cell-based; conditions: 20 hrs
Procedure: Complex soil microbiome was treated with various MeJA chemical analogs over 20 hrs and stained with CV. The full chemical name of the chemical analogs are as follows: DHJ: Dihydro jasmonic acid; MDHJ: Methyl dihydro jasmonate; MJ: Methyl jasmonate; MO: Methyl octanoate.
This method was used to get a proxy for biofilm biomass. Briefly, planktonic cells were discarded. 50 μL of 0.1% CV solution was added to the well very gently. The biofilm was stained for 10 minutes. The dye was removed gently. 100 μL of PBS was added to the well to wash off the excess CV. PBS was removed, and the wells were left to dry overnight. The next day, 200 ul of 1% SDS was added to each well and was resuspended vigorously with a pipette. After 20 minutes, 20 ul from the top suspension was removed and added to a new 96-well plate. The well was diluted with 180 ul of water and absorbance was checked at 595 nm on a spectrophotometer.
To identify the potential functional group of MeJA for its biofilm-inducing property, several jasmonic acid analogues were screened for their biofilm-inducing capability in the soil microbiome. The analogues were used to study biofilm induction in both complex soil microbiomes (FIG. 8).

soil microbiota [1] = test: Crystal violet biofilm biomass in push-pull dynamic system; format: cell-based; conditions: 5, 25 and 50 μmol MeJA spiked in soil chamber
Procedure: (§1) 5 g of JIFFY soil substrate was resuspended in 20 ml of PBS. This suspension was vortexed for 4 minutes and sonicated for 1 minute. It was then filtered through a strainer. The slurry that didn't pass through the strainer was again resuspended in 20 ml of PBS medium and subsequent steps were repeated twice. The filtrate was then centrifuged at 150G for 2 minutes to settle large soil particles and the supernatant was decanted into another tube. This supernatant was then centrifuged at 5500G for 5 minutes to obtain a bacterial pellet. This pellet was resuspended in 20 ml of soil extract medium. This suspension was referred to as “soil microbiota inoculum”. The final concentration in all inocula was around 1×10^8 bacteria per ml as quantified by Baclight bacterial counting kit (flow cytometry) or manual counting with a hemocytometer.
This system consists of an aerator/pump (to push air), 5 μm charcoal filter (to adsorb gaseous impurities), 0.22 μm filter (to trap microbial contamination), gas wash bottle (to moisturize the air), a source chamber (to host the source of volatiles), recipient chamber (to receive volatiles) and vacuum pump (to pull the air out) (FIG. 1D). […]
This method was used to get a proxy for biofilm biomass. […] The well was diluted with 180 ul of water and absorbance was checked at 595 nm on a spectrophotometer.

[2] = system: soil microbiota biofilms (extracellular matrix proteins); test: Live confocal imaging of biofilm matrix formation (SYPRO Ruby, 3D biovolume); format: cell-based
Procedure: as §1
(§2) For the confocal imaging experiments, soil inoculum was enriched in soil extract media overnight at 37° C.
(§3) Soil microbiota inoculum was prepared as described in the section above. MeJA was added to the microbiota to achieve the desired concentration (0, 1, 5, 25 nM for nucleic acid imaging experiment, and 0 and 5 nM for matrix imaging experiment). […] 50 µL of SYTO™9 (Thermo cat. no. S34854) solution (final concentration of 5 μM) was also added to all the wells. For matrix imaging, FilmTracer™ SYPRO™ Ruby Biofilm Matrix Stain (Thermo, cat. no. F10318) was added instead (ready to use, 1×concentration). For live imaging, Zeiss LSM 900 with Airyscan (Definite Focus 2) was used and images were acquired every 30 minutes for 24 hours with 65×oil objective at the NUS Centre for Bioimaging Science (CBIS). For both the dyes (separate experiments), a 488 nm laser was used.
(§4) Image analysis was performed using BiofilmQ software ([…]). Images were aligned along the Z-axis and along time. 2-class Otsu thresholding was used to detect the signal against the background. Sensitivity was set based on thresholding feedback. The rest of the settings were kept at default. Biofilm-related global properties were calculated and exported. We mainly focused on the 3D biovolume of our samples. Linear mixed-effects were used to model the biovolume where time, treatment, and their interaction were the fixed effects, and every sample was considered a random effect (Table 1 and Table 2). Following packages from R were used: nlme (Pinheiro, J. et al., R package version 3.1-153 (2021)), ggplot2 (Wickham, H., Wiley Interdiscip. Rev. Comput. Stat. 3, 180-185 (2011)).

soil microbiota [3] = test: Live confocal imaging of soil microbiota biofilm formation (SYTO9 nucleic acid stain, 3D biovolume); format: cell-based
Procedure: as §1, §2, §3, §4

soil microbiome = test: Biofilm induction by liquid MeJA concentration range; format: cell-based; conditions: pure liquid MeJA
Procedure: Biofilm induction of the soil microbiome was tested with several concentrations of pure MeJA at the nanomolar level. It was confirmed that a concentration range from […] of MeJA was effective to induce biofilms without being detrimental to plant growth.

[4] = system: microbial isolates from MeJA-induced complex biofilms; test: Biofilm assay of monoculture strains isolated from MeJA-induced biofilms; format: cell-based; conditions: 5 nM MeJA, crystal violet after 24 hours
Procedure: Complex microbiota biofilm exposed to volatile MeJA was scraped off and resuspended in PBS. Through serial dilution, this inoculum was plated on soil extract agar, minimal media agar, and LB agar. Colonies with unique morphology were picked and streaked onto a fresh LB plate to acquire single colonies. The isolated strains were identified using Sanger sequencing of the PCR product with primers 27F and […]. Their biofilm response to volatile MeJA was tested using “push-pull” setup (as described above for complex biofilms). Their response to soluble MeJA was tested by directly adding MeJA to the monoculture inoculum (final concentration of 5 nM). For both assays, biofilms were stained with crystal violet and quantified after 24 hours as explained in the biofilm staining protocol. The initial OD of the inoculum was 0.2.

[5] = system: soil microbiota biofilm community; test: 16S rRNA gene amplicon quantitative microbiome profiling of VOC-exposed biofilm communities; conditions: 16 and 24 hours
Procedure: Using the push-pull airflow system, soil microbiota inoculum was exposed to four VOC treatments 1) soil VOCs; 2) WT Arabidopis rVOCs; 3) jmt Arabidopsis rVOCs; 4) jmt Arabidopsis rVOCs+MeJA. Biofilm and planktonic parts of the samples were collected from 28 wells after 16 and 24 hours and stored at −80° C. The collective sample from 28 wells was treated as a single experimental replicate. The whole experiment was repeated eight times.
Biofilm was scraped at specific timepoints and resuspended in PBS solution. DNA-RNA shield was added in 1:1 proportion and samples were stored at −80 C. Zymobiomics DNA miniprep kit was used to isolate DNA from the samples based on their protocol. 16S V4-V5 region was amplified using 515F-Y and 927R primers (Walters et al., mSystems 1 (2016)). 20 µL of reaction contained 2 μL of 10×DreamTaq buffer, 2 μL of 2 mM dNTP mix, 0.5 μL of each primer (10 µM), 0.5 μL of DreamTaq polymerase (5U/μL), 10 ng of template DNA, and molecular grade water to make up the volume. PCR conditions were as follows: initial denaturation at 95° C. for 3 minutes, 35 cycles of denaturation at 95° C. for 45 s, annealing at 50° C. for 45 s, extension at 68° C. for 90 s and final extension at 68° C. for 5 minutes. PCR products were purified with a Genejet PCR purification kit. Amplicon concentration was measured using Qubit DNA BR Kit and Qubit fluorometer. 16S amplicons were submitted for next-gen sequencing on Illumina MiSeq V3 Run (300 base pairs paired-end) at Singapore Centre for Life Science Engineering (SCELSE). Rarefaction analysis was performed to calculate appropriate depth for sequencing (FIG. 17B).
To enumerate the 16S rRNA gene copy numbers, the primer pair 515F and 806R (Walters, W. et al., MSystems 1, (2016)) were used in qPCR to amplify the 16S gene using Applied Biosystem real-time PCR system. The PCR assay mixture consists of 10 ul of PowerUp™ SYBR™ Green Master Mix, 1 ul of each primer from 10 µM stock, 1 ul of DNA of extracted DNA from the microbial population, and 7 ul of sterile nuclease-free water. The PCR amplification program encompassed an initial denaturation step at 95° C. for 3 min followed by 40 three-step cycles at 95° C. for 30 s, at 52° C. for 30 s and 72° C. for 30 s. Plasmid with the fragments of 16S rRNA gene part amplified with same primer pair was taken as standard for creating standard curve with known copy number for absolute quantification. Pearson correlation was calculated for the qPCR-derived copy number and the DNA yield from all the samples (FIG. 17D).
Raw and demultiplexed sequencing data was analysed as follows (also described in a flowchart in FIG. 17A): Primer and adapter sequences were removed using cutadapt (Martin, M., EMBnet.journal 17, 10-12 (2011)). […]

[6] = 5 nM MeJA, time-treatment interaction

## CC/C=C\CC1=C(C)CCC1=O [Cis-jasmone, cis-jasmone]
Complex soil microbiome
  potential for biofilm induction among jasmonic acid analogues: highest potential for biofilm induction

## CCCCCC1C(=O)CCC1CC(=O)O (stereo not shown) [DHJ, Dihydro jasmonic acid]
Complex soil microbiome
  potential for biofilm induction among jasmonic acid analogues: highest potential for biofilm induction

## CC/C=C\CC1C(=O)CCC1CC(=O)OC (stereo not shown) [MeJA, Methyl jasmonate]
Soil microbiota [1]
  potency in biofilm promotion, volatile form: higher at low concentrations (5 μmol) and gradually declined in a dose-dependent manner
[2]; 5 nM MeJA
  time from which MeJA influence appeared in the matrix: ≥ 7 h
[2]; 5 nM MeJA vs non-treated biofilm
  effect on biofilm matrix: promoted biofilm matrix compared to non-treated biofilm
[2]; 5 nM MeJA, SYPRO Ruby
  Linear mixed-effects model Value, Treatment5 (matrix Biovolume): 294.3537
[2]; [6]
  Linear mixed-effects model Value, Hours: Treatment5 (matrix Biovolume): 11.25
Soil microbiota [3]; 1 nM MeJA, SYTO9, imaging over 24 hours
  Linear mixed-effects model Value, Treatment1 nM (Biovolume): −988.35
Soil microbiota [3]; 1 nM MeJA, time-treatment interaction
  Linear mixed-effects model Value, Hours: Treatment1 nM (Biovolume): 106.209
Soil microbiota [3]; 5 nM MeJA
  time from which biovolumes differed: ≥ 15 h
Soil microbiota [3]; 5 nM MeJA vs non-treated biofilms
  interaction of time and treatment in mixed-effects model: statistically significant
Soil microbiota [3]; 5 nM MeJA, 0 to 24 hours, vs control
  biofilm growth trajectory (biovolume): increasingly higher biofilm growth trajectory compared to the control
Soil microbiota [3]; 5 nM MeJA, SYTO9, imaging over 24 hours
  Linear mixed-effects model Value, Treatment5 nM (Biovolume): −453.513
Soil microbiota [3]; [6]
  Linear mixed-effects model Value, Hours: Treatment5 nM (Biovolume): 102.9409
Soil microbiota [3]; 25 nM MeJA, SYTO9, imaging over 24 hours
  Linear mixed-effects model Value, Treatment25 nM (Biovolume): −1245.62
Soil microbiota [3]; 25 nM MeJA, time-treatment interaction
  Linear mixed-effects model Value, Hours: Treatment25 nM (Biovolume): 90.7811
Soil microbiome
  concentration effective to induce biofilms without being detrimental to plant growth: ≥ 500 nM
[4]
  strains MeJA-responsive in biofilm formation, of nine tested: six
[5]; WT rVOCs vs soil VOCs, MeJA: jmt+MeJA vs jmt rVOCs
  share of biofilm community with significant shift in abundance: ~10%
[5]; vs respective control
  number of promoted ASVs: 21 ASVs
  number of repressed ASVs: 82 ASVs
  number of responding ASVs: 103 ASVs

— US20240389585A1, “METHOD FOR PROMOTING PLANT GROWTH” (priority 2021, published 2024)
